# Measured values reported in patent publication US20240293472A1, “Bee Product Extracts, Methods of Production, and Uses Thereof” (Quantum Technologies Limited, priority 2020, published 2024).
# Target: T1, HDAC1 (Homo sapiens, UniProt Q13547)
# T1 construct: purchased Huntingtree Associates Ltd
# Assay: Epigenase HDAC Activity/Inhibition Direct Assay Kit (Colorimetric)
# Format: biochemical
# Conditions: FIG. 20
# T1 sequence (Q13547 whole entry): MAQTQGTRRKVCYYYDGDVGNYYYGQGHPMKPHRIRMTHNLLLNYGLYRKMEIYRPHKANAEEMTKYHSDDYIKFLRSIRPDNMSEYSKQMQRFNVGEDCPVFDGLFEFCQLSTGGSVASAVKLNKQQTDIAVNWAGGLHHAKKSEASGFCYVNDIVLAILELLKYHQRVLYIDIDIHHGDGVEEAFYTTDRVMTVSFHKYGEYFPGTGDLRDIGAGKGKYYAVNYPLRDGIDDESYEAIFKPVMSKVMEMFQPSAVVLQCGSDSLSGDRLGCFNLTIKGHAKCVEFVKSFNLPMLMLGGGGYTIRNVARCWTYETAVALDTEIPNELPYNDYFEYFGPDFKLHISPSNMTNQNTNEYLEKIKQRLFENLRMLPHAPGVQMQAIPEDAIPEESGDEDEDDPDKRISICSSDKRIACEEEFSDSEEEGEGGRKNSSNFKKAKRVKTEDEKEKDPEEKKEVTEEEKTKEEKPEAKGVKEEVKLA
smiles,measurement,value
"CC(=O)C=O [MGO, Methylglyoxal]",HDAC inhibition,dose response inhibition
